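48-hour exposure; five concentrations; linearly interpolated endpoints. TGI is the concentration that stops growth completely.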 Where a SMILES comes first, the peptide text is derived from it. [ ]: non-standard residue; d: D form. The star is where a group is joined. Boc = CC(C)(C)OC(=O)*; Lac = C[CH](O)C(=O)O; OBn = c1ccc(CO*)cc1

Holding throughout (assay): DTP human tumour cell line panel, 48 h
The test system of assay [1] is OVCAR-8 ovarian.
Assay [2] has as its system 786-0 renal.
The test system of assay [3] is SR leukemia.
Assay [4] relates to DU-145 prostate.
Assay [5] relates to RPMI-8226 leukemia.
In assay [6] the test system is NCI-H522 lung.
In assay [7] the test system is OVCAR-4 ovarian.
In assay [8] the test system is RXF 393 renal.
Assay [9] concerns IGROV1 ovarian.
The subject of assay [10] is UACC-257 melanoma.
The subject of assay [11] is COLO 205 colon.
In assay [12] the test system is NCI-H226 lung.
Assay [13] concerns HCT-15 colon.
Assay [14] concerns TK-10 renal.
Assay [15] relates to HT29 colon.
In assay [16] the test system is NCI/ADR-RES ovarian.
Assay [17] deals with MOLT-4 leukemia.
The subject of assay [18] is ACHN renal.
For assay [19], the system named is NCI-H23 lung.

`COc1ccc(NC(=S)Nc2cc(C)cc(C)n2)cc1`: the TGI in [1], in [2], in assay [3], in assay [4], in assay [5] and in [6] was over 100 µM throughout. The TGI in assay [7], in [8], in assay [9], in [10], in assay [11] and in assay [12] was over 100 µM in each case. The TGI in assay [13], in assay [14], in assay [15], in [16] and in [17] was over 100 µM in each case.
For `O=[N+]([O-])C(=C(Cl)Cl)C(Cl)=C(Cl)Cl`, the TGI is 5.14 µM in [1]; 0.648 µM in assay [2]; over 100 µM in assay [3]; 24 µM in [4]; under 0.0106 µM in [6]; 0.482 µM in [7]. In addition, the TGI is 0.091 µM in [8]; 1.15 µM in assay [9]; 0.74 µM in assay [10]; 0.254 µM in assay [11]; 3.53 µM in assay [12]; 2.05 µM in assay [18]. In addition, the TGI in assay [13] is 0.908 µM; in [14], 1.35 µM; in assay [15] it was 0.852 µM; in assay [16], 5.45 µM; in assay [17], 0.175 µM; in [19], 1.96 µM.
On to `O=C1OCN(c2ccccc2)C12CCN(Cc1ccccc1)CC2`, for which the TGI in assay [1] is over 100 µM; in assay [2], 79.2 µM; in [3], over 100 µM; in assay [4], over 100 µM; in assay [5] it was 89 µM; in assay [7] it was over 100 µM. Further, the TGI was 33.2 µM in assay [8]; over 100 µM in [9]; 31 µM in assay [10]; 39.6 µM in [11]; over 100 µM in assay [12]; over 100 µM in [18]. For the same molecule, the TGI in assay [13] was 94.6 µM; in assay [14], over 100 µM; in assay [15], 31.9 µM; in assay [16], over 100 µM; in assay [17] it was 36.6 µM; in [19], over 100 µM.
Regarding `O=C(O)CCC(NC(=O)c1ccc(OCc2nc3cc(C(F)(F)F)ccc3nc2-c2ccccc2)cc1)C(=O)O` (configuration not stated), the TGI in assay [1], in [2], in [3], in assay [4], in assay [6] and in assay [7] was over 100 µM in each case. Further, the TGI in [8], in [9], in assay [10], in assay [11], in assay [12] and in [18] was over 100 µM throughout. Besides, the TGI in assay [13], in assay [14], in assay [15], in assay [16], in assay [17] and in assay [19] was over 100 µM each time.
Turning to `N=C(N)c1ccc(/C=C/c2ccc(C(=N)N)cc2)cc1`, the TGI in [1], in assay [2], in assay [3], in assay [4], in assay [6] and in [7] was over 100 µM each time. Moreover, the TGI in assay [8], in assay [9], in assay [10], in assay [12], in assay [18] and in [13] was over 100 µM throughout. Also, the TGI in assay [14] is 65.2 µM; in assay [15], over 100 µM; in assay [16], over 100 µM; in assay [17] it was over 100 µM; in [19], over 100 µM.
`CC1OC(OC2C(OC(=O)[C@]34CCC(C)(C)C[C@H]3C3=CC[C@@H]5[C@@]6(C)CC[C@H](OC7OC(C(=O)O)C(O)C(O)C7O)C(C)(C)[C@@H]6CC[C@@]5(C)[C@]3(C)C[C@H]4O)OCC(O)C2O)C(O)C(O)C1OC1OCC(OC2OCC(O)C(O)C2O)C(O)C1O` (some centres not stated): the TGI in assay [1] is 32.3 µM; in assay [2] it was 23.3 µM; in [3] it was 53.9 µM; in assay [4], 23.8 µM; in assay [5] it was 51.5 µM; in assay [6] it was 16.5 µM. The TGI was 9.31 µM in assay [7]; 29 µM in assay [8]; 26.5 µM in assay [9]; 23 µM in assay [10]; 3.32 µM in assay [11]; 22.9 µM in assay [12]. For the same molecule, the TGI is 15.8 µM in assay [18]; 28 µM in assay [13]; 11 µM in assay [15]; 25.1 µM in [16]; 37.1 µM in [17]; 4.87 µM in assay [19].
In the case of `CC(OC(=O)C(Cc1ccccc1)NC(=O)C(Cc1ccccc1)NC(=O)OC(C)(C)C)C(=O)OCc1ccccc1` (stereo not drawn) (Boc-Phe-Phe-[Lac]-OBn; configuration not given here), the TGI in assay [1], in assay [3], in assay [4], in assay [5], in assay [6] and in [8] was over 100 µM each time. The concentration for total growth inhibition (TGI) in [9], in [11], in assay [12], in assay [13], in [16] and in assay [17] was over 100 µM each time. The molecule further had a TGI in assay [19] of over 100 µM.
For the molecule `N#CC(C#N)=C1C(=Cc2ccc(OCCCCCCCCCCSSCCCCCCCCCCOc3ccc(C=C4C(=C(C#N)C#N)c5ccccc5C4=C(C#N)C#N)cc3)cc2)C(=C(C#N)C#N)c2ccccc21`, the TGI in [1] was over 100 µM; in assay [2] it was 41.7 µM; in [3], 68 µM; in [4] it was 47.7 µM; in assay [5] it was over 100 µM; in assay [6] it was 34.7 µM. For the same molecule, the TGI in assay [7] was 52.9 µM; in assay [8] it was 67.2 µM; in assay [9], over 100 µM; in assay [10] it was over 100 µM; in [12], 63.6 µM; in [18], over 100 µM. The TGI in assay [13] is 31.6 µM; in assay [14], over 100 µM; in assay [15], 34.1 µM; in assay [16], 38.8 µM; in assay [17] it was 80 µM; in assay [19] it was 32.6 µM.
`CCOC(=O)c1c(SC(=O)c2ccc(C(C)(C)C)cc2)n(-c2ccccc2)c(=S)n(-c2ccccc2)c1=O`: the TGI in assay [1], in [2], in assay [3], in assay [4], in assay [6] and in assay [7] was over 100 µM in each case. Moreover, the total growth inhibition concentration (TGI) in assay [8], in [9], in [10], in [11], in assay [12] and in assay [18] was over 100 µM in each case. In addition, the TGI in [13], in assay [14], in [15], in [16], in assay [17] and in assay [19] was over 100 µM in each case.
Regarding `CC(=O)c1cccc(Nc2nc3ccccc3c3occc23)c1`, the TGI in assay [1] is 74.5 µM; in assay [2] it was 40 µM; in assay [3] it was over 100 µM; in [4], over 100 µM; in assay [5], over 100 µM; in [7], 61.5 µM. Also, the TGI is 41.7 µM in assay [8]; over 100 µM in assay [10]; over 100 µM in assay [11]; 8.25 µM in [12]; 39.9 µM in assay [18]; over 100 µM in [13]. The TGI in assay [14] was 38.5 µM; in assay [15] it was over 100 µM; in [16], over 100 µM; in assay [17], over 100 µM; in [19] it was 50.8 µM.
Turning to `CSC1=C(C#N)C(=S)N=C(N)C1C(=O)Nc1ccc(C)cc1` (configuration not stated), the TGI in assay [1] was over 100 µM; in assay [2], over 100 µM; in assay [3], over 100 µM; in assay [4] it was over 100 µM; in assay [5], over 100 µM; in assay [6], 94.8 µM. For the same molecule, the TGI in [7], in assay [8], in [9], in assay [10], in [11] and in [12] was over 100 µM each time. For the same molecule, the TGI in [13], in [14], in assay [15], in [16], in assay [17] and in [19] was over 100 µM in each case.
As for `C1=CC2(C=CC13O[C@H](C1CCCCC1)[C@@H](C1CCCCC1)O3)O[C@H](C1CCCCC1)[C@@H](C1CCCCC1)O2`, the TGI in assay [1], in assay [2], in assay [3], in [4], in assay [5] and in assay [7] was over 50 µM each time. Further, the TGI in [8], in assay [9], in assay [10], in assay [11], in [12] and in assay [18] was over 50 µM throughout. Moreover, the TGI in assay [13], in assay [14], in assay [15], in assay [16], in assay [17] and in assay [19] was over 50 µM in each case.
With `CO[C@]1(c2ccc([N+](=O)[O-])cc2)Oc2ccccc2C(=O)[C@@]1(Nc1ccc(C=O)cc1)OC`, the TGI in [1], in assay [2], in assay [3], in assay [4], in assay [5] and in assay [7] was over 10 µM in each case. The TGI in assay [8], in assay [9], in [10], in [11], in assay [12] and in assay [18] was over 10 µM throughout. The TGI in assay [13], in assay [14], in assay [15], in assay [16], in [17] and in assay [19] was over 10 µM throughout.
In the case of `NC(=O)C(=CNC(N)=S)C(N)=O`, the TGI in assay [1], in [2], in assay [3], in assay [4], in [5] and in assay [6] was over 100 µM each time. Also, the TGI in assay [7], in assay [8], in [9], in assay [10], in assay [11] and in assay [12] was over 100 µM throughout. For the same molecule, the TGI in assay [18], in [13], in [15], in assay [16], in assay [17] and in [19] was over 100 µM in each case.
Consider `O=c1c2cccnc2n2n1Cc1ccccc1C2`, for which the TGI in assay [1], in [2], in [3], in assay [4], in assay [5] and in assay [6] was over 100 µM each time. Besides, the TGI in assay [7], in assay [8], in [9], in assay [10], in assay [12] and in assay [18] was over 100 µM in each case. In addition, the TGI in assay [13], in assay [14], in assay [15], in [16], in [17] and in assay [19] was over 100 µM throughout.

Values taken from PubChem BioAssay (NCI).
